Measured values as given in patent publication US6890920B2, “Quaternary ammonium compounds” (Pharmacia & Upjohn Company, priority 1992, dated 2005).
Like-named read-outs stand apart in the source and are kept apart here.

Assays:
muscarinic receptor M4 = molecular target: T1, muscarinic receptor M4 (Homo sapiens, UniProt P08173); test: Muscarinic receptor subtype M4 binding assay, radioligand displacement; conditions: [3]H-methylscopolamine displacement, membranes from recombinant mammalian cell lines
T1 construct: expressed in transfected cells
T1 sequence (P08173 1-479): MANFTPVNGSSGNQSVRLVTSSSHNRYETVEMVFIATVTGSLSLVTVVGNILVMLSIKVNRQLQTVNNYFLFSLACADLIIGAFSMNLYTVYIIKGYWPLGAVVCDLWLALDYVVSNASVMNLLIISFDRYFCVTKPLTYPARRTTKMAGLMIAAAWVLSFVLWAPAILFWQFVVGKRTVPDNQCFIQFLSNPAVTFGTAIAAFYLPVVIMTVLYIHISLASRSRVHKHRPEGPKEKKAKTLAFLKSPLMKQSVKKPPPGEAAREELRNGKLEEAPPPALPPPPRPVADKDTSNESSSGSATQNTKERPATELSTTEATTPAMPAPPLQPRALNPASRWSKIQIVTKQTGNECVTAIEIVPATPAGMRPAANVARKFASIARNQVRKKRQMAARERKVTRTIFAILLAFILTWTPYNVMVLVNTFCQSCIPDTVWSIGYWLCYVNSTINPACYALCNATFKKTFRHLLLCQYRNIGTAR
Description: (§1) Muscarinic receptor subtype M1-M5 binding assays were carried out. Briefly, [3]H-methylscopolamine was allowed to bind to membranes from various recombinant mammalian cell lines, each with an over-expression of a particular receptor subtype.
(§2) Muscarinic receptor subtype M1-M5 binding assays were performed.

muscarinic receptor M2 = molecular target: T2, muscarinic receptor M2 (Homo sapiens, UniProt P08172); test: Muscarinic receptor subtype M2 binding assay, radioligand displacement; conditions: [3]H-methylscopolamine displacement, membranes from recombinant mammalian cell lines
T2 construct: expressed in transfected cells
T2 sequence (P08172 1-466): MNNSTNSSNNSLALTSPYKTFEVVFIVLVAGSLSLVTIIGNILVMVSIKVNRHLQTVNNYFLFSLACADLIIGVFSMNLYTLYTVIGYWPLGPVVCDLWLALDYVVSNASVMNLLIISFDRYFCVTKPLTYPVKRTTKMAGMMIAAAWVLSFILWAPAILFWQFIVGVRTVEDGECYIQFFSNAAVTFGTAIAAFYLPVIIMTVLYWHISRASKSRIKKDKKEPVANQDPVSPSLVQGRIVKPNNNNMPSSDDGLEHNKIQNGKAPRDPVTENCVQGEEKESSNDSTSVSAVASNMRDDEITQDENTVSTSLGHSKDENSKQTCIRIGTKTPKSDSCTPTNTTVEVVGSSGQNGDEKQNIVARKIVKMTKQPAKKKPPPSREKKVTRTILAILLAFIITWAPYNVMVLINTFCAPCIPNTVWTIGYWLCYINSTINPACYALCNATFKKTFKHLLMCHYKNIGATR
Description: as §1, §2

[1] = system: methacholine-induced bronchoconstriction in Balb/c mice; test: Bronchodilatory effect of inhaled compounds, Example VIII (% inhibition); assay type: in vivo; conditions: inhalation of 1 mg/mL FBE; for % inhibition of bronchoconstriction after 10 min: 10 min after dosing; for % inhibition of bronchoconstriction after 36 h: 36 h after dosing
Excerpt: Bronchoconstriction was induced in BALB/c mice by administration of methacholine.

muscarinic receptor M3 = molecular target: T3, muscarinic receptor M3 (Homo sapiens, UniProt P20309); test: Muscarinic receptor subtype M3 binding assay, radioligand displacement; conditions: [3]H-methylscopolamine displacement, membranes from recombinant mammalian cell lines; read-out: Ki values, receptor subtype M3
T3 construct: expressed in transfected cells
Description: as §1, §2

muscarinic receptor M1 = molecular target: T4, muscarinic receptor M1 (Homo sapiens, UniProt P11229); test: Muscarinic receptor subtype M1 binding assay, radioligand displacement
T4 construct: expressed in transfected cells
T4 sequence (P11229 1-460): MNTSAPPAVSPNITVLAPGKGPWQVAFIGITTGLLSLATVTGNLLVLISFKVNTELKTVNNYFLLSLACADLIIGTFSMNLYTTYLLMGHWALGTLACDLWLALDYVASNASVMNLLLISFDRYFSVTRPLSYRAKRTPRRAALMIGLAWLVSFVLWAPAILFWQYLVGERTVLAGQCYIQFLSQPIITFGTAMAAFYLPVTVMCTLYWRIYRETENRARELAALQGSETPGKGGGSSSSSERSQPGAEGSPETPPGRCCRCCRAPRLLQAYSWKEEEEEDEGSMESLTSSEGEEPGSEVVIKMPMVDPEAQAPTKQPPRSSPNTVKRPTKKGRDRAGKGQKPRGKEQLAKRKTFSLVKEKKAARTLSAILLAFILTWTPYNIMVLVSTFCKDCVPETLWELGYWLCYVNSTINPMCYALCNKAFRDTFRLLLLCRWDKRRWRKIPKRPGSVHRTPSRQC
Description: as §1, §2

muscarinic receptor M5 = molecular target: T5, muscarinic receptor M5 (Homo sapiens, UniProt P08912); test: Muscarinic receptor subtype M5 binding assay, radioligand displacement; conditions: [3]H-methylscopolamine displacement, membranes from recombinant mammalian cell lines; read-out: Ki values, receptor subtype M5
T5 construct: expressed in transfected cells
T5 sequence (P08912 1-532): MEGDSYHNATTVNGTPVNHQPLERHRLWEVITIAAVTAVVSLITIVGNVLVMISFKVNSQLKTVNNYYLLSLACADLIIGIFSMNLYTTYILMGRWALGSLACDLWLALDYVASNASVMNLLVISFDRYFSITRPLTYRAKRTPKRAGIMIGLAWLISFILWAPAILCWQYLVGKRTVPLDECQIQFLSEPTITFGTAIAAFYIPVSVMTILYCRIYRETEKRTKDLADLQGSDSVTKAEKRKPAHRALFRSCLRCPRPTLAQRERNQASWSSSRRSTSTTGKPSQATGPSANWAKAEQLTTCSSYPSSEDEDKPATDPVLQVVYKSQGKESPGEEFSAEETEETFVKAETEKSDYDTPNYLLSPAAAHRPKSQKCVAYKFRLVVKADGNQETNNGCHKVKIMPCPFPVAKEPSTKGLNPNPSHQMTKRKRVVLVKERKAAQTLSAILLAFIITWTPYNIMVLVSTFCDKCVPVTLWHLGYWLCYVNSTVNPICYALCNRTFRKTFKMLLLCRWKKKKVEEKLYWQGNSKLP
Description: as §1, §2

[2] = Pharmacokinetics of inhaled tolterodine, plasma levels; assay type: in vivo, Balb/c mice; conditions: FIG. 7
Description: Blood samples were collected at 2.5 minutes, 15 minutes, 30 minutes, 1 hour or 2 hours after aerosol drug treatment. Blood samples were prepared as in example VI. Samples were analyzed using a PE SCIEX API 3000 mass spectrometer. Chromatographically, the analyte and the internal standard were resolved on a Zorbax ACE Phenyl column using a gradient elution. The limit of quantitation was 100 pg/mL.

[3] = [3]H-methylscopolamine displacement, membranes from recombinant mammalian cell lines

T3 sequence (P20309 whole entry): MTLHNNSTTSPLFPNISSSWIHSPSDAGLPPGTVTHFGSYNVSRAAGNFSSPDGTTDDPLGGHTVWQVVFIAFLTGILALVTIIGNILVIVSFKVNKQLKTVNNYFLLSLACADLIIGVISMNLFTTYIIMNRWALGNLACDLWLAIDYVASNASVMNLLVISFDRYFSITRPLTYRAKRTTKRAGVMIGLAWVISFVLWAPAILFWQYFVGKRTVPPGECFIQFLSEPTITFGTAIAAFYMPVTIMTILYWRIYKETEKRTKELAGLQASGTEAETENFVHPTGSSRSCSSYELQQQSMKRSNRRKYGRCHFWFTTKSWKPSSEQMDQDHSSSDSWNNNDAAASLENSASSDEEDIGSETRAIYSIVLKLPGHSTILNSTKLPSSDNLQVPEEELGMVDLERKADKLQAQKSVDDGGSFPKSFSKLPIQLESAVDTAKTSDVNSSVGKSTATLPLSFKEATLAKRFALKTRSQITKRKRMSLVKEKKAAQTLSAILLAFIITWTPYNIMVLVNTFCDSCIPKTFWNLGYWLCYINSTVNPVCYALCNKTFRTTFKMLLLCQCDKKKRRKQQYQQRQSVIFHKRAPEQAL

For `CC[N+]1(CCC(c2ccccc2)c2cc(C)ccc2O)CCCC1.[I-]` (centres unmarked) [Example 32, 1-Ethyl-1-(3-(2-hydroxy-5-methylphenyl)-3-phenylpropyl]pyrrolidinium iodide], the Ki (muscarinic receptor M4) was 3.8 nM, the Ki (muscarinic receptor M2) was 1.7 nM and the “% inhibition of bronchoconstriction after 10 min” value (shortened to “% inhibition … after 10 min”) [1] was 100%. For the same compound, the “% inhibition of bronchoconstriction after 36 h” value (“% inhibition … after 36 h” for short) [1] was 17%, the Ki (muscarinic receptor M3) was 3.1 nM and the Ki (muscarinic receptor M1; [3]) was 1.1 nM. For the same compound, the Ki (muscarinic receptor M5) was 1.2 nM.
For `CC(C)[N+](C)(CC[C@H](c1ccccc1)c1cc(CO)ccc1O)C(C)C.[I-]` [Example 8, (3R)-3-[2-Hydroxy-5-(hydroxymethyl)phenyl]-N,N-diisopropyl-N-methyl-3-phenylpropan-1-aminium iodide], the Ki (muscarinic receptor M4) was 1.07 nM, the Ki (muscarinic receptor M2) was 1.08 nM and the “% inhibition … after 10 min” value [1] was 82%. The “% inhibition of bronchoconstriction after 24 h” value ([1]; 24 h after dosing) was 60%, the “% inhibition of bronchoconstriction after 48 h” value ([1]; 48 h after dosing) was 15% and the Ki (muscarinic receptor M3) was 0.92 nM. The Ki (muscarinic receptor M1; [3]) was 0.86 nM and the Ki (muscarinic receptor M5) was 0.68 nM.
For `Cc1ccc(O)c(C(CC[N+]2(C)CCCCCC2)c2ccccc2)c1.[I-]` (centres unmarked) [Example 34, 1-[3-(2-Hydroxy-5-methylphenyl)-3-phenylpropyl]-1-methylazepanium iodide], the Ki (muscarinic receptor M4) was 2.9 nM, the Ki (muscarinic receptor M2) was 1 nM and the “% inhibition … after 10 min” value [1] was 100%. The “% inhibition … after 36 h” value [1] was 0%, the Ki (muscarinic receptor M3) was 4.7 nM and the Ki (muscarinic receptor M1; [3]) was 1 nM. For the same compound, the Ki (muscarinic receptor M5) was 1.8 nM.
With `Cc1ccc(O)c(C(CC[N+]2(C)CCCC2)c2ccccc2)c1.[I-]` (centres unmarked) [Example 31, 1-[3-(2-Hydroxy-5-Methylphenyl)-3-phenylpropyl]-1-methylpyrrolidinium iodide] the Ki (muscarinic receptor M4) was 4.2 nM, the Ki (muscarinic receptor M2) was 2.2 nM and the “% inhibition … after 10 min” value [1] was 100%. The “% inhibition … after 36 h” value [1] was 0%, the Ki (muscarinic receptor M3) was 3.3 nM and the Ki (muscarinic receptor M1; [3]) was 1.2 nM. The Ki (muscarinic receptor M5) was 1.6 nM.
Compound `CC(C)N(CC[C@H](c1ccccc1)c1cc(CO)ccc1O)C(C)C` [Hydroxytolterodine, 2-[(1R)-3-(diisopropylamino)-1-phenylpropyl]-4-(hydroxymethyl)phenol, reference compound] has a Ki (muscarinic receptor M4) of 1.4 nM, a Ki (muscarinic receptor M2) of 0.33 nM and a Ki (muscarinic receptor M3) of 1.4 nM. The Ki (muscarinic receptor M1; [3]) was 1.5 nM and the Ki (muscarinic receptor M5) was 0.48 nM.
For `Cc1ccc(O)c(C(CC[N+]2(C)CCCCC2)c2ccccc2)c1.[I-]` (centres unmarked) [Example 33, 1-[3-(2-Hydroxy-5-methylphenyl)-3-phenylpropyl]-1-methylpiperidinium iodide], the Ki (muscarinic receptor M4) was 3.6 nM, the Ki (muscarinic receptor M2) was 1.7 nM and the “% inhibition … after 10 min” value [1] was 100%. The “% inhibition … after 36 h” value [1] was 0%, the Ki (muscarinic receptor M3) was 3.2 nM and the Ki (muscarinic receptor M1; [3]) was 1.1 nM. It also gave a Ki (muscarinic receptor M5) of 0.9 nM.
For `Cc1ccc(O)c([C@H](CCN(C(C)C)C(C)C)c2ccccc2)c1` [Tolterodine, 2-[(1R)-3-(diisopropylamino)-1-phenylpropyl]-4-methylphenol, reference compound], the Ki (muscarinic receptor M4) was 1.5 nM, the Ki (muscarinic receptor M1) was 0.87 nM and the Ki (muscarinic receptor M5) was 0.55 nM. The Plasma levels ([2]; inhalation of nebulized solution at 0.1 mg/ml, limit of quantitation 100 pg/mL) was “at or below detection limits” and the “absorption into the circulation” value ([2]; inhalation of nebulized solutions at 0.1, 0.5 or 1.0 mg/ml) was “rapidly absorbed into the circulation”.
With `COc1ccc(C)cc1[C@H](CC[N+](C)(C(C)C)C(C)C)c1ccccc1.[I-]` [Example 20, (3R)-N,N-diisopropyl-3-(2-methoxy-5-methylphenyl)-N-methyl-3-phenylpropan-1-aminium iodide] the melting point was 211 °C (dec.).
In the case of `CCCC(=O)Oc1ccc(C)cc1[C@H](CC[N+](C)(C(C)C)C(C)C)c1ccccc1.[I-]` [Example 21, (3R)-3-[2-(Butyryloxy)-5-methylphenyl]-N,N-diisopropyl-N-methyl-3-phenylpropan-1-aminium iodide], the melting point is reported as 175 °C (dec.).
For `Cc1ccc(O)c([C@H](CC[N+](C)(C(C)C)C(C)C)c2ccccc2)c1.[Br-]` [Example 3], the Ki (muscarinic receptor M4) was 0.72 nM, the Ki (muscarinic receptor M2) was 0.52 nM and the “% inhibition … after 10 min” value [1] was 100%. The “% inhibition … after 36 h” value [1] was 93%, the melting point was 189 to 191 °C (dec.) and the Ki (muscarinic receptor M3) was 0.43 nM. The Ki (muscarinic receptor M1; [3]) was 0.3 nM and the Ki (muscarinic receptor M5) was 0.26 nM.
